Reference: patent publication EP4610348A1, “HEPATOLENTICULAR DEGENERATION CELL, PREPARATION METHOD THEREFOR, AND EVALUATION METHOD THEREFOR” (GUANGXIU-GAOXIN LIFE SCIENCES CO., LTD. HUNAN, priority 2022, dated 2024)

What was measured:
Type in all cases: cell-based, human
[1] = tested on: normal hepatocytes; assay: Effect of copper ion accumulation on cell viability (CCK-8); settings: 48 hours
Description: (§1) 3.4 Effect of copper ion accumulation on cell viability: The induced cells were digested and evenly inoculated in a 96-well plate, with about 3×10^4 cells per well, and edge wells were filled with sterile PBS. After the cells were adhered to the wall, a copper sulfate or copper chloride solution in different concentrations (0 mM, 0.5 mM, 1 mM, and 1.5 mM) were added, and 6 replicate wells were set in each group. The wells without cells were set as blank wells. After incubation at 37°C for 48 hours (fresh culture medium was replaced every 22 hours to 26 hours), the original culture medium was discarded, and the cells were washed three times with DPBS. Fresh culture medium (100 µL per well) was added, and a 10 µL CCK-8 reaction solution was added to each well, followed by incubating at 37 °C in the dark for 4 hours. After the incubation, the absorbance at 450 nm was detected using a microplate reader.

[2] = tested on: hepatolenticular degeneration hepatocytes; assay: as above; settings: 48 hours
Description: as §1

[3] = tested on: ATP7B protein in normal hepatocyte; assay: Detection of ATP7B protein expression (Western blotting); settings: after incubation with 100 µM to 300 µM copper sulfate or copper chloride
Description: (§2) 3.2 Detection of ATP7B protein expression: Cells on the last day of induction were collected, and ATP7B protein expression levels in the hepatocytes before and after incubation with 100 µM to 300 µM of copper sulfate or copper chloride were detected by Western blotting method, with GAPDH protein as the internal reference. The induced cells were digested and collected in a 1.5 mL EP tube. An appropriate amount of protein lysis buffer was added depending on the cell solution volume (adding 200 µL RIPA lysis buffer for 1×10^6 cells). The cell solution was pipetted up and down to mix, and the cells were lysed in an ice bath with an ultrasonic cell disruptor for 15 minutes, then centrifuged at 13000 ×g and 4°C for 10 minutes. The supernatant was transferred to a new EP tube, and the protein concentration was detected using a BCA protein quantification kit. Polyacrylamide gel for SDS-PAGE was prepared, including preparing an 8% separating gel and a stacking gel. After the stacking gel was solidified, the comb was carefully pulled out. After a 40 µg sample and a 5 µL protein marker were loaded, the electrophoresis started at a 110 V constant voltage. After the Loading Buffer ran out of the separating gel, the electrophoresis stopped. […]

[4] = tested on: ATP7B protein in hepatolenticular degeneration hepatocyte; assay: as above; settings: after incubation with 100 µM to 300 µM copper sulfate or copper chloride
Description: as §2

[5] = tested on: ATP7B gene in hepatolenticular degeneration hepatocytes; assay: Detection of ATP7B gene expression (qPCR); settings: after incubation with 100 µM to 300 µM copper sulfate or copper chloride
Description: (§3) 3.1 Detection of ATP7B gene expression: Cells on the last day of induction were collected, and ATP7B gene expression levels in the hepatocytes before and after incubation with 100 µM to 300 µM of copper sulfate or copper chloride were detected by qPCR method, with GAPDH gene as the internal reference. Primers were used for validation. The qPCR method was performed as follows: 95°C for 5 minutes; 45 cycles (94°C for 40 seconds, 54°C to 58°C for 10 seconds, 72°C for 10 seconds); and 72°C extension for 5 minutes.

[6] = tested on: ATP7B gene in normal hepatocytes; assay: Detection of ATP7B gene expression (qPCR); settings: after incubation with 100 µM to 300 µM copper sulfate or copper chloride
Description: as §3

Q: For `[Cu+2]` [copper ions], which cell viability ([1]; 0.5 mM copper ions) is on record?
A: 95.33%

Q: What about the cell viability ([1]; 1 mM copper ions) of the same compound?
A: 83.78%

Q: What about the cell viability ([1]; 1.5 mM copper ions) of the same compound?
A: 73.53%

Q: What about the cell viability ([2]; 0.5 mM copper ions) of the same compound?
A: 93.25%

Q: And the cell viability ([2]; 1 mM copper ions)?
A: 67.49%

Q: What about the cell viability ([2]; 1.5 mM copper ions) of the same compound?
A: 34.8%

Q: What about the “expression level of the ATP7B protein” value [3] of the same compound?
A: significantly increased

Q: What about the “expression level of the ATP7B protein” value [4] of the same compound?
A: still expresses a low level of the ATP7B protein

Q: And the “expression level of the ATP7B gene” value [5]?
A: not upregulated significantly

Q: And the “expression level of the ATP7B gene” value [6]?
A: significantly upregulated
